13 substances from patent publication US20250161419A1, “SERPIN PEPTIDES AND METHODS OF USING THE SAME” (SERPIN PHARMA, LLC, priority 2022, published 2025) can be followed below.

One data set deals with phospho-STAT6. Nature of the data set: IL-13 stimulated STAT6 phosphorylation in esophageal EPC2 cells (western blot). It is filed as cell-based, human. Particulars: 30 minutes post IL-13 induction. How it is done: Esophageal EPC2 cells were treated with vehicle (ddw), A1AT or SP163M. Cells were collected at time-points indicated and western blot analysis of phospho-specific STAT6 was analyzed. […] Using CRISPER/CAS9 technology, an LRP1 knockout esophageal EPC2 cell line was created.

Data set [1] relates to NFκB. Kind of data set: NFκB reporter assay stimulated with LPS (THP1-XBlue-MD2-GD14 reporter cells, SEAP read-out). The following applies: peptide 50 μg/ml before LPS 5 ng/ml, overnight. It is filed as cell-based. How it is done: The reporter cells (THP1-XBlue-MD2-GD14 cells) were treated with each peptide (50 μg/ml) before being insulted with LIPS (5 ng/ml) and incubated overnight. The NFκB inducible Secreted Embryonic Alkaline Phosphatase (SEAP) was measured in the supernatant and read for absorbance.
(In general: A reporter such as luciferase makes a cellular process visible.)

The test system of another data set is phospho-ERK1/2. Nature of the data set: Cell signaling analysis in PC12 cells, immunoblot of phospho-ERK1/2. It is filed as cell-based, rat. The following applies: SP163M 24 or 240 nM, NGF 0.36 nM, RAP 150 nM pretreatment 15 min. How it is done: Cell signaling analysis: Rat PC12 cells were purchased from ATCC (CRL-1721). PC12 cells were maintained in high glucose DMEM (Gibco, USA) containing 10% heat-inactivated FBS (Gibco, USA), 5% HyClone heat-inactivated horse serum (Cytiva, USA), penicillin (100 units/ml) and streptomycin ([…]) in 6-well plates that were pre-coated with 0.01 mg/ml type IV collagen (Sigma-Aldrich, St. Louis, MO, USA). Cells were transferred to serum-free medium (SFM) 4 h prior to adding effectors, and then treated with SP163M (2.4, 24 or 240 nM); EI-tPA (12 nM), NGF (0.36 nM), or vehicle (PBS) for 10 min. In some cases, cells were pre-incubated with the competitive antagonist of LRP1, GST-RAP (150 nM) for 15 min or electroporated using the Rat Neuron Nucleofector Amaxa Kit (Lonza Biosciences) and incubated with siRNA to silence LRP1 expression (siLRP1; M-094191-01-0010, Dharmacon) for 48 h. Control cells were transfected with non-targeting control (NTC) siRNA (NTC; D-001810-10-05, Dharmacon). Cells were rinsed with ice-cold PBS and proteins were extracted in RIPA buffer (20 mM sodium phosphate, 150 mM NaCl, pH 7.4, 1% Triton X-100, 0.5% sodium deoxycholate, 0.1% SDS) supplemented with protease and phosphatase inhibitors (Roche Diagnostics, USA). After 30 min on ice, lysates were centrifuged at 15000×g for 5 min, supernatant collected and stored at −20° C. Equal amounts of protein from cell lysates (20 μg), as determined by BCA Protein Assay (ThermoFisher Scientific, Waltham, MA, USA), were subjected to 10% SDS-PAGE and electro-transferred to nitrocellulose membranes. The membranes were blocked with 5% nonfat dried milk and then incubated with primary anti-phospho-AKT (Cell Signaling Technology, Danvers, MA, USA; cat #9271S; 1:1000), anti-phospho-ERK1/2 (Cell Signaling Technology, Danvers, MA, USA; cat #9101S; 1:1000), anti-LRP1 (Cell Signaling Technology, Danvers, MA, USA; cat #64099S; 1:1000) or anti total-ERK1/2 (Cell Signaling Technology, Danvers, MA, USA; cat #91012S; 1:1000). Immunoblots were developed using Radiance, Radiance Q, and Radiance Plus chemiluminescent substrates and imaged using a BioRad ChemiDoc Imaging System (Bio-Rad, Hercules, CA, USA).

The nature of data set [2]: Peptide stability as stated in Example 1 (no method described). It is filed as physicochemical. Particulars: stated as explanation of activity; no test described.
In data set [3] the test system is NFκB. Kind of data set: NFκB reporter assay stimulated with LPS (THP1-XBlue-MD2-GD14 reporter cells, SEAP read-out). It counts as cell-based. The following applies: without LPS.

In the case of “A1AT: alpha-1 antitrypsin, the prototypical SERPIN [Peptide A1AT]”, the STAT6 phosphorylation entry with phospho-STAT6 was “STAT6 was phosphorylated in vehicle and A1AT treated cells”.
For the substance “FPKMVPQFNTELKIFPEVNIK (FPKMVPQFNTELKIFPEVNIK) [SP34, reference compound]”, the “NFκB activity (NFκB inducible SEAP in supernatant)” value (from here on “NFκB activity”) in the data set with NFκB [1] is on record as “neither the scrambled core control peptide nor the AAT 0-36 fragment decreased the NFκB activity”.
As for LRFNRPFLVVI [SP24], in the data set on NFκB [1], the “NFκB activity” value is on record as “lack of function”.
On to “NGF: NGF-β purchased from Sigma, cell signaling control [reference compound]”, for which the “activation of phospho-ERK1/2 after 10 min, with or without RAP” value in the data set on phospho-ERK1/2 was “activated ERK1/2”.
On to “R R R L R F N R P F L V V I R R R (RRRLRFNRPFLVVIRRR) [SP26]”, for which the “NFκB activity” value in the data set on NFκB [1] is “heightened activity”.
Turning to “RRRVKFNKPFVFLMIEQNTKRRR (RRRVKFNKPFVFLMIEQNTKRRR; SP16 peptide core sequence including the LRP1 binding site) [SP21]”, the “NFκB activity” value in the data set with NFκB [1] was “NFkB inhibition increased as well relative to SP16”. The peptide stability entry in data set [2] is listed as “stability increased”.
On to “R R R V K F N K P F V F L M R R R (RRRVKFNKPFVFLMRRR; SP16 peptide core sequence including the LRP1 binding site) [SP22]”, for which the “NFκB activity” value in the data set on NFκB [1] was “NFκB activity was significantly reduced”.
The same measure, in the same setting: next, “R R R V R F N R P F L M I I R R R (RRRVRFNRPFLMIIRRR) [SP29]”: “heightened activity”; “R R R V R F N R P F L R R R (RRRVRFNRPFLRRR) [SP32]”: “could not be restored with the poly arginine flanks”.
With “SIPPEVKFNKPFVFLMIEQNTKSPLFMGKVVNP (SIPPEVKFNKPFVFLMIEQNTKSPLFMGKVVNP; SP16 peptide core sequence including the LRP1 binding site; listed as Homo sapiens) [SP8, reference compound]”, the “NFκB activity” value in the data set on NFκB [1] is given as “neither the scrambled core control peptide nor the AAT 0-36 fragment decreased the NFκB activity”. The “NFkB induction by the peptide itself” value in the data set with NFκB [3] is given as “showed NFkB inducible properties without the need for LPS”.
V R F N R P F L (VRFNRPFL) [SP31]: the “NFκB activity” value in the data set on NFκB [1] was “anti-inflammatory activity of the peptide was lost”.
For the substance “VKFNKPFVFLM (SP16 peptide core sequence including the LRP1 binding site; listed as Homo sapiens) [SP20]”, the “NFκB activity” value with NFκB [1] is on record as “did not have an inhibitory effect”. In addition, the peptide stability entry in data set [2] is listed as “unstable”.
Consider VRFNRPFLMII [SP28], for which, in the data set on NFκB [1], the “NFκB activity” value was “lack of function”.
